US8889711B2, “Pyrazolopyridine derivatives as anticancer agent” (Pierre Fabre Medicament, priority 2009, dated 2014)

Legend:
ALK kinase = ALK kinase (Homo sapiens, UniProt Q9UM73); test: Test to measure ALK kinase inhibition (GST-PLCγ1 substrate, anti-phosphotyrosine ELISA, luminescence); type: biochemical; settings: ALK kinase 180 ng/ml, 250 μM ATP, 30 minutes at 30° C.
Method: Test to Measure ALK Kinase Inhibition
A ViewPlate (Packard) is incubated with the GST-PLCγ1 substrate (purified recombinant form) at 0.1 mg/ml in phosphate buffer (PBS pH 7.4)(100 μl/well) for one hour under shaking. The plate is then saturated with a blocking solution containing 5% bovine serum albumin (BSA) (SIGMA) in PBS buffer pH 7.4.
After adding the inhibitor at the desired final concentration (usual range of 30 μM to 10 nM), the reaction is conducted by adding the ALK kinase at 180 ng/ml in 13 mM Tris reaction buffer pH 7.5 (SIGMA); 6.5 mM MgCl2 (MERCK); 0.65 mM DiThioThreitol (DTT) (ACROS); 39 mM sodium β-glycerophosphate (TCI); 0.65 mM sodium orthovanadate (SIGMA) and 250 μM ATP (SIGMA). Incubation is carried out for 30 minutes at 30° C. under shaking.
After three washings under shaking in 0.1% PBS/Tween-20 buffer (SIGMA), an anti-phosphotyrosine antibody coupled with HRP (UBI) diluted to 1/1000th in PBS/BSA buffer 5 mg/ml, is incubated for one hour under shaking. After three further washings in 0.1% PBS/Tween-20, the wells are incubated two minutes with 100 μl of SuperSignal ELISA mixture (PIERCE).
The signal is read in luminescent mode using a luminometer (MOLECULAR DEVICES SpectraMax M5e).

karpas 299 cells = test: Measurement of inhibition of cell proliferation (Karpas), ATPlite; type: cell-based
Method: Measurement of Inhibition of Cell Proliferation (Karpas):
The antiproliferative activities of the compounds were measured using the ATPlite technique (Perkin Elmer).
The non-adhering cells (karpas 299) are seeded in 96-well plates (300 000 cells/ml) on Day 1 at a concentration compatible with logarithmic growth for 72 hours required for evaluation of the compounds. All the cells are treated on Day 1, then placed in an incubator at 37° C. under 5% CO2 atmosphere. Cell viability is evaluated on Day 4 by assay of released ATP, characteristic of viable cells. The IC50 values are determined by non-linear regression on the basis of a sigmoid model of dose/response relationship, Hill's slope coefficient being left variable, performed using GraphPad software sequence with the supplied algorithm.

Chain of ALK kinase (Q9UM73 19-1620): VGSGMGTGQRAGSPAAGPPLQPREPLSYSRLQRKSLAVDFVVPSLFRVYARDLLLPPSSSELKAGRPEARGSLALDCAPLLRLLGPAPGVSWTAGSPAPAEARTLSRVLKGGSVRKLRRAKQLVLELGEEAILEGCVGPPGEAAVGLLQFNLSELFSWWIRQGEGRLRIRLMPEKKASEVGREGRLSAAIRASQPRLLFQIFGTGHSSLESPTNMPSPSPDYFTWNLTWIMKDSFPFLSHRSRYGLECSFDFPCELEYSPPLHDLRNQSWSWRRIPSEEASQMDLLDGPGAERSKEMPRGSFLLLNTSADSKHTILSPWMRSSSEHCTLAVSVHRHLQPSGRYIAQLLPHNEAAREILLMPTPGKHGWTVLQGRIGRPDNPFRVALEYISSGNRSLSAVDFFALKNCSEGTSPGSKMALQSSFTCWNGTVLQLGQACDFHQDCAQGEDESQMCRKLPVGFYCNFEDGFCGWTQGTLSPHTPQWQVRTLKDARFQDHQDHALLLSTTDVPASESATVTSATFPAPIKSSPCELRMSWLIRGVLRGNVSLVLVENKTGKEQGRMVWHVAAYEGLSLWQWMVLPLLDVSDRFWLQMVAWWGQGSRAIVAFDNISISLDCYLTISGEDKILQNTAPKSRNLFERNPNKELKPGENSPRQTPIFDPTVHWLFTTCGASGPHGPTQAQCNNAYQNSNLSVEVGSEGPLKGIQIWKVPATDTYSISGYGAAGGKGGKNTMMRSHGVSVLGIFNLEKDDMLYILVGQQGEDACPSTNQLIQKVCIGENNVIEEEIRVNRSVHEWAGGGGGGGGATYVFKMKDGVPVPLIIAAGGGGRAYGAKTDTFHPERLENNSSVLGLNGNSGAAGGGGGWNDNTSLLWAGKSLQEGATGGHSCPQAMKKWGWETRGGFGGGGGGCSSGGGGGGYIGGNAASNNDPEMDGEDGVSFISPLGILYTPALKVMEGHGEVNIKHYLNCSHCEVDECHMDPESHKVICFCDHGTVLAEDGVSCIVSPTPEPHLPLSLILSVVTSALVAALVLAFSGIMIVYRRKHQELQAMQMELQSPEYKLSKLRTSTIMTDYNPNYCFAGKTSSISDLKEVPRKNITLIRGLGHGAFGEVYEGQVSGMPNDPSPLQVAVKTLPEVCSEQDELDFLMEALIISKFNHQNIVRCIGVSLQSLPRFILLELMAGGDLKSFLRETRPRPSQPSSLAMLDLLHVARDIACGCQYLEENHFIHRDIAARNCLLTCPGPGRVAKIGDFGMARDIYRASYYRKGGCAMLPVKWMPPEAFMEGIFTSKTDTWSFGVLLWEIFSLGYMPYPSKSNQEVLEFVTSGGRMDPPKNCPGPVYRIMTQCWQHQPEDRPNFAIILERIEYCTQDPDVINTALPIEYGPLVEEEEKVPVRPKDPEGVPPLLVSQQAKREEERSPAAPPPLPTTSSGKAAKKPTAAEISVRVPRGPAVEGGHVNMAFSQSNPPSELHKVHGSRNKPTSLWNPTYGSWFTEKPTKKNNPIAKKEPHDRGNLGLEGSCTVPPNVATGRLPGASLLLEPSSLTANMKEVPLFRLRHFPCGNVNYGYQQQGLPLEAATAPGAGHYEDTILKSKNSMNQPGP

| Compound | IC50 (ALK kinase) [nM] | IC50 (karpas 299 cells; Homo sapiens, KARPAS-299, 72 h) [nM] | IC50 (karpas 299 cells; 72 hours) [nM] |
| --- | --- | --- | --- |
| CCN(CC)CCSc1ccc(-c2c(C#N)c(-c3ccc(O)cc3F)nc3[nH]nc(C)c23)o1 [Compound 132] | < 100 | > 10000 | – |
| Cc1n[nH]c2nc(-c3ccc(O)cc3F)c(C#N)c(-c3ccc(N4CCC(N)CC4)o3)c12 [Compound 133] | < 100 | 100 to 1000 | – |
| Cc1n[nH]c2nc(-c3ccc(O)cc3F)c(C#N)c(-c3ccc(N4CC[C@H](N)C4)o3)c12 [Compound 134] | < 100 | 1000 to 10000 | – |
| Cc1n[nH]c2nc(-c3ccc(O)cc3F)c(C#N)c(C(=O)NN3CCN(C)CC3)c12 [Compound 135] | 100 to 1000 | > 10000 | – |
| Cc1n[nH]c2nc(-c3ccc(O)cc3F)c(C#N)c(C(=O)NCCN3CCOCC3)c12 [Compound 136] | 1000 to 10000 | > 10000 | – |
| Cc1n[nH]c2nc(-c3ccc(O)cc3F)c(C#N)c(-c3ccc(S(=O)(=O)O)o3)c12 [Compound 137] | 100 to 1000 | > 10000 | – |
| Cc1n[nH]c2nc(-c3ccc(O)cc3F)c(C#N)c(C3C[C@@H]3C(=O)NCC3CCNCC3)c12 (stereo partly shown) [Compound 138] | 100 to 1000 | > 10000 | – |
| Cc1n[nH]c2nc(-c3ccc(O)cc3F)c(C#N)c(-c3ccc(N4CCC(N5CCN(C)CC5)CC4)o3)c12 [Compound 142] | < 100 | – | > 10000 |
| Cc1n[nH]c2nc(-c3ccc(O)cc3F)c(C#N)c(-c3ccc([N+](=O)[O-])cc3)c12 [Compound 143] | 1000 to 10000 | > 10000 | – |
| Cc1n[nH]c2nc(-c3ccc(O)cc3F)c(C#N)c(C3C[C@@H]3C(=O)N3CCNCC3)c12 (stereo partly shown) [Compound 146] | 100 to 1000 | > 10000 | – |
| Cc1n[nH]c2nc(-c3ccc(O)cc3F)c(C#N)c(C3C[C@@H]3C(=O)N3CC[C@@H](N)C3)c12 (stereo partly shown) [Compound 147] | 1000 to 10000 | > 10000 | – |
| Cc1n[nH]c2nc(-c3ccc(O)cc3F)c(C#N)c(-c3ccc(C#N)cc3)c12 [Compound 148] | 1000 to 10000 | 1000 to 10000 | – |
| Cc1n[nH]c2nc(-c3ccc(O)cc3F)c(C#N)c(-c3cnc(N)s3)c12 [Compound 150] | 100 to 1000 | > 10000 | – |
| Cc1n[nH]c2nc(-c3ccc(O)cc3F)c(C#N)c(-c3csc(C4CCNCC4)n3)c12 [Compound 152] | 100 to 1000 | – | > 10000 |
| Cc1n[nH]c2nc(-c3ccc(O)cc3F)c(C#N)c(-c3ccc(N4CCC(O)CC4)o3)c12 [Compound 153] | < 100 | 1000 to 10000 | – |
| Cc1n[nH]c2nc(-c3c(F)cc(O)cc3F)c(C#N)c(-c3ccc(N4CCNCC4)cc3)c12 [Compound 154] | < 100 | 100 to 1000 | – |
| Cc1n[nH]c2nc(-c3c(F)cc(O)cc3F)c(C#N)c(-c3ccc(N4CC[C@@H](N)C4)o3)c12 [Compound 155] | < 100 | 1000 to 10000 | – |
| Cc1n[nH]c2nc(-c3ccc(O)cc3F)c(C#N)c(-c3ccc(N4CC[C@@H](O)C4)o3)c12 [Compound 156] | < 100 | 100 to 1000 | – |
| Cc1n[nH]c2nc(-c3ccc([N+](=O)[O-])cc3F)c(C#N)c(-c3ccc(N4CCNCC4)cc3)c12 [Compound 158] | 1000 to 10000 | > 10000 | – |
| Cc1n[nH]c2nc(-c3ccc(O)cc3F)c(C#N)c(-c3ccc(N4CCC(N(C)C)C4)o3)c12 (stereo not shown) [Compound 159] | < 100 | 100 to 1000 | – |
| Cc1n[nH]c2nc(-c3ccc(N)cc3F)c(C#N)c(-c3ccc(N4CCNCC4)cc3)c12 [Compound 160] | 1000 to 10000 | > 10000 | – |
| Cc1n[nH]c2nc(-c3c(F)ccc(F)c3F)c(C#N)c(-c3ccc(N4CCNCC4)cc3)c12 [Compound 161] | 100 to 1000 | > 10000 | – |
| Cc1n[nH]c2nc(-c3ccc(O)cc3F)c(C#N)c(-c3ccc(N4CCC(N5CCCC5)CC4)o3)c12 [Compound 162] | < 100 | 100 to 1000 | – |
| Cc1n[nH]c2nc(-c3ccc(O)cc3F)c(C#N)c(-c3ccc(N4CCC(CN)C4)o3)c12 (stereo not shown) [Compound 163] | < 100 | 1000 to 10000 | – |
| N#Cc1c(-c2ccc(O)cc2F)nc2[nH]nc(N)c2c1-c1ccc(N2CC3CNCC3C2)o1 (stereo not shown) [Compound 164] | 100 to 1000 | > 10000 | – |
| Cc1n[nH]c2nc(-c3ccc(O)cc3F)c(C#N)c(-c3csc(C4CCNCC4)n3)c12 [Compound 165] | 100 to 1000 | – | 1000 to 10000 |
| Cc1n[nH]c2nc(-c3ccc(O)cc3F)c(C#N)c(-c3cnc(N4CCN(C)CC4)s3)c12 [Compound 167] | 100 to 1000 | 1000 to 10000 | – |

| Compound | IC50 (ALK kinase) [nM] | IC50 (karpas 299 cells; Homo sapiens, KARPAS-299, 72 h) [nM] | IC50 (karpas 299 cells; 72 hours) [nM] |
| --- | --- | --- | --- |
| Cc1n[nH]c2nc(-c3ccc(O)cc3F)c(C#N)c(C(=O)NC3CCNCC3)c12 [Compound 168] | 1000 to 10000 | > 10000 | – |
| Cc1n[nH]c2nc(-c3ccc(O)cc3F)c(C#N)c(-c3ccc(N4CCC(N5CCN(C)CC5)CC4)o3)c12 [Compound 169] | < 100 | – | 100 to 1000 |
| Cc1n[nH]c2nc(-c3ccc(O)cc3F)c(C#N)c(-c3ccc(N4CCOCC4)o3)c12 [Compound 171] | 100 to 1000 | 100 to 1000 | – |
| Cc1n[nH]c2nc(-c3ccc(O)cc3F)c(C#N)c(-c3ccc(N4CCNCC4)o3)c12 [Compound 172] | 100 to 1000 | 1000 to 10000 | – |
| Cc1n[nH]c2nc(-c3ccc(O)c(Br)c3)c(C#N)c(-c3ccc(N4CCNCC4)cc3)c12 [Compound 175] | 100 to 1000 | 1000 to 10000 | – |
| Cc1cc(-c2nc3[nH]nc(C)c3c(-c3ccc(N4CCNCC4)cc3)c2C#N)ccc1O [Compound 176] | 100 to 1000 | 100 to 1000 | – |
| COc1cc(-c2c(C#N)c(-c3ccc(O)cc3F)nc3[nH]nc(C)c23)ccc1OCCCN(C)C [Compound 177] | 100 to 1000 | 1000 to 10000 | – |
| Cc1n[nH]c2nc(-c3ccc(O)cc3F)c(C#N)c(-c3ccc(OCCCN(C)C)cc3)c12 [Compound 178] | < 100 | 100 to 1000 | – |
| Cc1n[nH]c2nc(-c3ccc(O)c(Cl)c3)c(C#N)c(-c3ccc(N4CCNCC4)cc3)c12 [Compound 180] | < 100 | 100 to 1000 | – |
| N#Cc1c(-c2ccc(O)cc2F)nc2[nH]nc(N)c2c1-c1ccc(N2CCNCC2)cc1F [Compound 181] | < 100 | 1000 to 10000 | – |
| Cc1n[nH]c2nc(-c3ccc(O)cc3F)c(C#N)c(-c3ccc(N4CCNCC4)cc3)c12 [Compound 182] | < 100 | – | 1000 to 10000 |
| N#Cc1c(-c2ccc(O)cc2F)nc2[nH]nc(N)c2c1-c1ccc(N2CCOCC2)o1 [Compound 183] | < 100 | 1000 to 10000 | – |
| Cc1n[nH]c2nc(-c3ccc(O)cc3F)c(C#N)c(-c3ccc(N4CCN(C)CC4)s3)c12 [Compound 184] | < 100 | 100 to 1000 | – |
| N#Cc1c(-c2ccc(O)cc2F)nc2[nH]nc(N)c2c1-c1ccc(C2=CCNCC2)cc1 [Compound 186] | < 100 | 1000 to 10000 | – |
| Cc1cc(-c2nc3[nH]nc(N)c3c(-c3ccc(N4CCNCC4)cc3)c2C#N)ccc1O [Compound 187] | < 100 | 1000 to 10000 | – |
| N#Cc1c(-c2ccc(O)cc2F)nc2[nH]nc(N)c2c1-c1ccc(N2CC[C@H](N)C2)cc1 [Compound 188] | < 100 | 1000 to 10000 | – |
| Cc1cc(O)ccc1-c1nc2[nH]nc(C)c2c(-c2ccc(N3CCNCC3)cc2)c1C#N [Compound 189] | 100 to 1000 | 1000 to 10000 | – |
| N#Cc1c(-c2ccc(O)cc2F)nc2[nH]nc(N)c2c1-c1ccc(N2CCC(N)CC2)o1 [Compound 190] | < 100 | 1000 to 10000 | – |
| CN(C)CCCN(C)c1ccc(-c2c(C#N)c(-c3ccc(O)cc3F)nc3[nH]nc(N)c23)cc1 [Compound 191] | < 100 | 1000 to 10000 | – |
| N#Cc1c(-c2ccc(O)c(Cl)c2)nc2[nH]nc(N)c2c1-c1ccc(N2CCNCC2)cc1 [Compound 192] | < 100 | 1000 to 10000 | – |
| N#Cc1c(-c2ccc(O)cc2F)nc2[nH]nc(N)c2c1-c1ccc(N2CCNCC2)c(F)c1 [Compound 193] | < 100 | 1000 to 10000 | – |
| CN(C)CCCOc1ccc(-c2c(C#N)c(-c3ccc(O)cc3F)nc3[nH]nc(N)c23)cc1 [Compound 194] | < 100 | 100 to 1000 | – |
| N#Cc1c(-c2ccc(O)cc2F)nc2[nH]nc(N)c2c1-c1ccc(C2CCNCC2)cc1 [Compound 195] | < 100 | 1000 to 10000 | – |
| N#Cc1c(-c2ccc(O)cc2F)nc2[nH]nc(-c3cccs3)c2c1-c1ccc(N2CCNCC2)cc1 [Compound 196] | 1000 to 10000 | 100 to 1000 | – |
| N#Cc1c(-c2ccc(O)cc2F)nc2[nH]nc(-c3ccco3)c2c1-c1ccc(N2CCNCC2)cc1 [Compound 197] | < 100 | 100 to 1000 | – |
| COc1ccc(-c2n[nH]c3nc(-c4ccc(O)cc4F)c(C#N)c(-c4ccc(N5CCNCC5)cc4)c23)cc1 [Compound 198] | < 100 | 100 to 1000 | – |
